# Measurements from BindingDB's records for doi:10.1021/acs.jmedchem.6b00705 (Leiden Institute of Chemistry, 2016).
# Key:
# [1] = target: Proteasome subunit beta type-2 (Homo sapiens, UniProt P49721); test: Inhibition of catalytic activity of constitutive proteasome 20s subunit beta2 in human Raji cells incubated for 1 hr by BODIPY(FL)-LU-112 probe based competitive activity based protein profiling assay
# [2] = Inhibition of catalytic activity of immunoproteasome 20s subunit beta2 in human Raji cells incubated for 1 hr by BODIPY(FL)-LU-112 probe based competitive activity based protein profiling assay
Structure (SMILES),IC50 [1],IC50 [2]
CC1=C(C(=O)N[C@H](C)C(=O)N[C@@H](Cc2c[nH]c3ccccc23)C(=O)N[C@@H](CC2CCCCC2)C(=O)[C@@]2(C)CO2)Cc2ccccc21,> 1000 nM,> 1000 nM
COc1ccc(C[C@H](NC(=O)[C@H](Cc2ccccc2)N=[N+]=[N-])C(=O)N[C@@H](Cc2ccccc2)C(=O)N[C@@H](CC(C)C)C(=O)[C@@]2(C)CO2)cc1,110 nM,–
CC(C)C[C@H](NC(=O)CN1CCOCC1)C(=O)N[C@@H](C[C@H]1CC[C@H](C2CCCCC2)CC1)C(=O)N[C@@H](Cc1ccccc1)C(=O)N[C@@H](C)C(=O)[C@@]1(C)CO1,> 100000 nM,> 100000 nM
C[C@H](NC(=O)[C@H](Cc1ccccc1)NC(=O)[C@H](C[C@H]1CC[C@@H](c2ccccc2)CC1)NC(=O)[C@H](Cc1ccccc1)N=[N+]=[N-])C(=O)[C@@]1(C)CO1,> 100000 nM,300 nM
CC(C)C[C@H](NC(=O)[C@H](Cc1ccccc1)NC(=O)[C@H](CCc1ccccc1)NC(=O)[C@H](Cc1ccccc1)N=[N+]=[N-])C(=O)[C@@]1(C)CO1,60 nM,–
CC(C)C[C@H](NC(=O)[C@H](Cc1ccccc1)NC(=O)[C@H](CC1CCC(C)CC1)NC(=O)[C@H](Cc1ccccc1)N=[N+]=[N-])C(=O)[C@@]1(C)CO1 (some centres not stated),46 nM,–
C[C@H](NC(=O)[C@H](Cc1ccccc1)NC(=O)[C@H](C[C@H]1CC[C@H](c2ccccc2)CC1)NC(=O)[C@H](Cc1ccccc1)N=[N+]=[N-])C(=O)[C@@]1(C)CO1,> 100000 nM,> 100000 nM
CC(C)C[C@H](NC(=O)[C@H](Cc1ccccc1)NC(=O)[C@H](Cc1ccccc1)NC(=O)[C@H](Cc1ccccc1)N=[N+]=[N-])C(=O)[C@@]1(C)CO1 [(S)-2-azido-N-((S)-1-((S)-1-((S)-4-methyl-1-((R)-2-methyloxiran-2-yl)-1-oxopentan-2-ylamino)-1-oxo-3-phenylpropan-2-ylamino)-1-oxo-3-phenylpropan-2-yl)-3-phenylpropanamide],66 nM,–
